The source of these data is ChEMBL document CHEMBL1201862, “PubChem BioAssay data set” (2004).

The structures appear in SMILES notation.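 The compound was tested at five concentrations on cells cultured in 96-well plates, with a 48-hour exposure period. GI50 is the concentration that inhibits growth by half.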 Activity calls are given as the source filed them. Rule as the data show it: active = GI50 up to about 1.1 µM and inactive = higher. A value given as a limit tells only on which side of the number the result lay.

Some test systems named below: A498; CAKI-1; HOP-62; HT-29; K562; M14; MCF7; MDA-MB-435; MDA-N; NCI-H522; NCI/ADR-RES; SF-295; SK-MEL-28; SK-MEL-2; SN12C; SNB-19; SNB-75; SNB-78; SW-620; U-251.
Holding throughout (experiment): DTP human tumour cell line panel, 48 h

Turning to `COc1ccc(/C=C2\CCC(C)(CN(C)C)C2=O)cc1Br` (centres undefined), the GI50 is 22.4 µM (inactive) with A498; 32.7 µM (inactive) in the assay on CAKI-1; 49.3 µM (inactive) in the assay with HOP-62; 21.9 µM (inactive) in the assay on HT-29; 27.9 µM (inactive) in the assay on K562; 19.8 µM (inactive) in the assay on M14. Moreover, the GI50 is 13.5 µM (inactive) in the assay on MCF7; 24.5 µM (inactive) in the assay on MDA-MB-435; 19.1 µM (inactive) in the assay with MDA-N; 17 µM (inactive) in the assay with NCI-H522; 22.3 µM (inactive) with NCI/ADR-RES; 26.3 µM (inactive) in the assay with SF-295. The GI50 is 22.9 µM (inactive) in the assay with SK-MEL-28; 18.7 µM (inactive) in the assay on SK-MEL-2; 17.5 µM (inactive) in the assay on SN12C; 23 µM (inactive) with SNB-19; 25.6 µM (inactive) in the assay on SNB-75; 38.1 µM (inactive) in the assay with SNB-78. The GI50 is 19.8 µM (inactive) with SW-620 and 21.8 µM (inactive) in the assay with U-251.

As to `NC(=O)n1ncc(Cl)c(Cl)c1=O`, the GI50 in the assay with A498, in the assay with CAKI-1, with HOP-62, in the assay with HT-29, with K562 and in the assay on M14 was > 100 µM (inactive) each time. Moreover, the GI50 with NCI-H522, with SF-295, with SK-MEL-28, in the assay with SK-MEL-2, in the assay on SN12C and with SNB-19 was > 100 µM (inactive) throughout. Further, the GI50 in the assay on SNB-75, in the assay on SNB-78, with SW-620 and with U-251 was > 100 µM (inactive) each time.

For the compound `Cc1c(Cl)cccc1NC(=O)C(=O)C1C(=O)NC(=O)NC1=O`, the GI50 in the assay with A498, in the assay on CAKI-1, with HOP-62, in the assay on HT-29, in the assay with K562 and with M14 was > 100 µM (inactive) throughout. The GI50 in the assay with NCI-H522, in the assay on SF-295, in the assay on SK-MEL-28, with SK-MEL-2, in the assay on SN12C and in the assay on SNB-19 was > 100 µM (inactive) in each case. For the same compound, the GI50 with SNB-75, in the assay on SNB-78, in the assay with SW-620 and in the assay with U-251 was > 100 µM (inactive) each time.

As for `N/C(=N\N=C\c1c[nH]c2ccccc12)Nc1ccccc1`, the GI50 with A498 was 0.256 µM (active); in the assay with CAKI-1, 0.519 µM (active); in the assay with HOP-62 it was 0.308 µM (active); in the assay on HT-29, 0.191 µM (active); in the assay with K562, 0.278 µM (active); in the assay on M14 it was 0.11 µM (active). The GI50 in the assay on MCF7 was 0.185 µM (active); with MDA-MB-435, 0.02 µM (active); in the assay with MDA-N it was 0.0219 µM (active); in the assay on NCI-H522 it was 0.0596 µM (active); in the assay on NCI/ADR-RES, 0.148 µM (active); with SF-295, 0.134 µM (active). For the same compound, the GI50 was 0.789 µM (active) with SK-MEL-28; 0.345 µM (active) in the assay with SK-MEL-2; 0.535 µM (active) in the assay on SN12C; 0.54 µM (active) in the assay on SNB-19; 0.378 µM (active) in the assay on SNB-75; 1.08 µM (active) with SNB-78. Moreover, the GI50 was 0.122 µM (active) with SW-620 and 0.315 µM (active) in the assay on U-251.

In the case of `COc1cccc2c1C(=O)C1(O)CCCCC21` (centres undefined), the GI50 with A498, with CAKI-1, in the assay with HOP-62, in the assay on HT-29, with K562 and in the assay on M14 was > 100 µM (inactive) each time. The GI50 in the assay with NCI-H522, in the assay with SF-295, in the assay on SK-MEL-28, with SK-MEL-2, in the assay with SN12C and in the assay on SNB-19 was > 100 µM (inactive) in each case. Further, the GI50 in the assay with SNB-75, with SNB-78, in the assay with SW-620 and in the assay with U-251 was > 100 µM (inactive) each time.

For `CCOc1ccc(NC(=O)C(=O)NO)cc1`, the GI50 with A498, in the assay on CAKI-1, in the assay with HOP-62, with HT-29, in the assay with K562 and in the assay with M14 was > 100 µM (inactive) in each case. Also, the GI50 in the assay with NCI-H522, in the assay on SF-295, with SK-MEL-28, in the assay on SK-MEL-2, with SN12C and in the assay on SNB-19 was > 100 µM (inactive) throughout. The GI50 in the assay on SNB-75, in the assay on SNB-78, in the assay with SW-620 and with U-251 was > 100 µM (inactive) each time.

Broadly, the GI50 is the concentration at which growth is held to half of that of the control.
